Data from patent US10124007B2, “Combination of PI3K-inhibitors” (BAYER PHARMA AKTIENGESELLSCHAFT, priority 2013, dated 2018).
“And” between values parts separate entries of the source, which are not always exact repeats. Identical values can stand only once.

Key:
PC-3 = assay: WST-1 based proliferation assay, PC-3; type: cell-based, human; settings: WST-1, days 1-5
Description: (§1) The effects of PI3K inhibitor Compound A1 and radium 223 in MCF-7 and 4T1 breast cancer cells and PC-3 and LNCaP prostate cancer cells were investigated in vitro as single agent and in combination. The effects were studied by measuring cell proliferation and apoptosis. Radium 223 and the reference inhibitor doxorubicin were added at day 0. The PI3K inhibitor(s) was added at day −1 (24 hours before addition of Alpharadin) and at day 4. The following two concentrations of the inhibitors and two concentrations of radium 223 in 4 replicates were tested:
(§2) The effects on cell proliferation were studied using a WST-1 based proliferation assay and the effects on apoptosis were studied in parallel plates by measuring caspase 3/7 activity. The measurements were performed at 4 different time points, days 1, 2, 3 and 5. Caspase activity was normalized to the cell number obtained with the WST-1 assay in parallel plates.

MCF-7 [1] = assay: WST-1 based proliferation assay, MCF-7; type: cell-based, human; settings: WST-1, days 1-5
Description: as §1, §2

MCF-7 [2] = assay: Caspase 3/7 apoptosis assay, MCF-7; type: cell-based, human; settings: caspase 3/7 normalized to WST-1, day 2
Description: as §1, §2

LNCaP = assay: WST-1 based proliferation assay, LNCaP; type: cell-based, human; settings: for LNCaP cell proliferation (effect in words): WST-1, days 1-5
Description: as §1, §2

[3] = system: LNCaP prostate cancer cells in bone; assay: Orthotopic LNCaP CRPC bone model in mice; type: in vivo; settings: for Tumor growth (effect in words): LNCaP CRPC model; for Number of osteoclasts at tumor-bone interface (effect in words): TRAP staining; for Inhibition of progression of osteoblastic lesions / Growth/progression of osteoblastic lesions (effect in words): x-ray radiography; for Growth/progression of osteoblastic lesions (effect in words): lesion area
From the text: The monotherapy and the combination of compound A1 and radium 223 were further tested in an orthotopic model of LNCaP, a CRPC cell line in mice. The LNCaP cells are known to form osteoblastic and mixed lesions when inoculated to bone marrow cavity. We used this model for testing the effects of compound A1 and radium-223 as single agent and in combination on the growth of LNCaP prostate cancer cells in bone. The osteoblastic bone metastases was visualized by X-ray radiography about six weeks post tumor cell inoculation. Mice with established bone metastases were randomized and treated for 45 days. The following four experimental groups with 13-14 mice in each were included in the study:
1) Vehicle control (Compd A1 vehicle QD po)
2) Ra-223 300 kBq/kg (dosed twice at 4-week intervals)+vehicle QD po
3) Compd A1 75 mg/kg (po QD)
Body weights were determined twice a week. Blood samples were taken and the animals radiographed biweekly. The animals were sacrificed 45 days after dosing, or earlier if they were moribund. Terminal blood samples were taken. Tissue samples were collected and processed for gamma-counter measurements, microCT measurements and histomorphometry.

4T1 = assay: WST-1 based proliferation assay, 4T1; type: cell-based, mouse; settings: for 4T1 cell proliferation at lower dose (effect in words): lower (250 nM) dose
Description: as §1, §2

[4] = system: 4T1-GFP-fluorescent mouse breast cancer cells; assay: 4T1-GFP syngeneic breast cancer bone metastasis model in mice; type: in vivo, Balb/c mice; settings: for Survival Days after Treatment, Average: average of 10 survival animals; for Survival Days after Treatment, Average / Survival Days after Treatment: radium 223 300 kBq/kg iv once, Compound A1 75 mg/kg po QD; for Survival Days after Treatment: individual survival animals 1-10; for Adrenal glands with metastasis / Ovaries with metastasis / Kidneys with metastasis: non-survival animals sacrificed at day 12 or 13; for Kidneys with metastasis: macroscopic findings and fluorescence imaging
Description: The monotherapy and the combination of compound A1 and radium 223 were tested in a syngeneic animal model that resembles the characteristics of breast cancer bone metastatic disease in humans. This model can be effectively used for testing the effects of cancer drug candidates on the metastasis of breast cancer cells to bone.
To this extend, 4T1-GFP-fluorescent mouse breast cancer cells were inoculated into the left cardiac ventricle of 4-5 weeks old female Balb/c mice. Within one-two weeks after the inoculation, the animals developed osteolytic bone metastases that can be visualized by GFP-fluorescence and X-ray radiography.
On day 7 post tumor cell inoculation, animals were randomized according to radiography and presence of tumor metastases. On day 7, animals were dosed with a single dose of radium 223 or vehicle, daily dose of PI3K inhibitor or a combination treatment with single dose of radium 223 and daily continuous dosing of PI3K inhibitor. Half of the animals (n=10) from each treatment group were sacrificed on day 13 after inoculation, or earlier when they were moribund, half of the animals (N=10) were sacrificed when they became moribund. The osteolytic lesions and whole body tumor burden were measured by x-ray and fluorescence imaging at sacrifice. Furthermore, tissue samples from the left and right tibia and femur were collected for further histomorphometric analysis. Tissue was embedded in paraffin for histomorphometric analysis of bone and tumor area.
Groups: Control group (vehicle) received Alpharadin vehicle (sodium citrate buffer), iv once and PEG/Wfi 60:40 pH 4.0, po QD; radium 223 group was given at 300 kBq/kg of radium 223, iv once and PEG/Wfi 60:40 pH 4.0, po QD; PI3K group was given 75 mg/kg of Compound A1, po QD and radium 223 vehicle, iv once; the combination group was given 300 kBq/kg of radium 223, iv once and 75 mg/kg of Compound A1, po QD;

[5] = single dose 250 kBq per kg body weight; cited from earlier work
[6] = system: patients with bone metastases; settings: cited from earlier work
[7] = system: patients with CRPC (Castration Resistant Prostate Cancer) and bone metastases; settings: cited from earlier work
[8] = fluorescence imaging at sacrifice

SMILES | PC3 cell proliferation (effect in words) (PC-3) | MCF-7 cell proliferation (effect in words) (MCF-7 [1]) | MCF-7 apoptosis induction / tumor cell death (effect in words) (MCF-7 [2]) | LNCaP cell proliferation (effect in words) (LNCaP) | Tumor growth (effect in words) [3] | Number of osteoclasts at tumor-bone interface (effect in words) [3] | Inhibition of progression of osteoblastic lesions [3] | Growth/progression of osteoblastic lesions (effect in words) [3] | 4T1 cell proliferation at lower dose (effect in words) (4T1) | Survival Days after Treatment, Average [4] | Whole body tumor burden (effect in words) [4, 8] | Survival Days after Treatment [4] | Adrenal glands with metastasis [4] | Ovaries with metastasis [4] | Kidneys with metastasis [4] | also measured
COc1c(OC[C@H](O)CN2CCOCC2)ccc2c1N=C(NC(=O)c1cccnc1C)N1CCN=C21 [Compound A1, N-(8-{[(2R)-2-hydroxy-3-(morpholin-4-yl)propyl]oxy}-7-methoxy-2,3-dihydroimidazo[1,2-c]quinazolin-5-yl)-2-methylpyridine-3-carboxamide] | better anti-proliferactive activity | potent anti-proliferative activity | only at high dose can induce apoptosis | strong anti-proliferative effects | potently inhibited | decreased | 50% | significantly inhibited | only moderate inhibition | 6.6 days | significantly decreased | 6 days (5×) and 4 days and 8 days (4×) | 61% | 56% | 17% | Whole body tumor burden reduction ([4]; fluorescence imaging at sacrifice, day 13 after inoculation, 6 days of treatment): 67%; Whole body tumor burden (effect in words) ([4]; fluorescence imaging at sacrifice, listed as compound A1): decreased; Reduction of kidney metastases ([4]; frequency of soft tissue metastases): 73%; Relative tumor area in bone marrow area (effect in words) ([4]; histomorphometry, ANOVA p=0.099477): Trends of inhibition; Reduction in total osteolytic area ([4]; radiography at sacrifice): 53.2%; Total osteolytic area / tumor-induced osteolysis (effect in words) ([4]; radiography at sacrifice): strongly inhibited
COc1cccc2c1C(=O)c1c(O)c3c(c(O)c1C2=O)C[C@@](O)(C(=O)CO)C[C@@H]3O[C@H]1C[C@H](N)[C@H](O)[C@H](C)O1 [doxorubicin] | inhibited proliferation | inhibited proliferation |  | inhibited proliferation |  |  |  |  |  |  |  |  |  |  |  | 4T1 cell proliferation (effect in words) (4T1; WST-1, days 1-5): inhibited proliferation
[Cl][223Ra][Cl] [radium 223, radium-223 dichloride] | moderate inhibition | only slight inhibition | could not induce tumor cell death |  | potently inhibited | eradicated | 56% | significantly inhibited | only moderate inhibition | 6.8 days | not statistically significant | 8 days (4×) and 6 days (6×) | 94% | 94% | 22% | LNCaP cell proliferation at high dose (effect in words) (LNCaP; high dose (1600 Bq/mL)): effective; Observed adverse reactions [5]: diarrhea and reversible myelosuppression; Number of osteoclasts at tumor-bone interface (effect in words) ([3]; listed as Ra-223): decreased; Disease-related biomarkers (bone ALP, PSA) ([6]; Phase 2 studies): improves disease-related biomarkers; Pain ([6]; Phase 2 studies): reduces pain; Safety profile ([6]; phase 1 and 2 studies): favorable safety profile, with minimal myelotoxicity; 4T1 cell proliferation at higher dose (effect in words) (4T1; higher dose): strong anti-proliferative effects; Median survival longer than placebo ([7]; in vivo): 2.8 months; Time to first skeletal-related event ([7]; in vivo): significantly prolonged; Reduction in risk of death compared with placebo ([7]; overall survival): 30.5%
